Values of other authors in US20240401031A1, “Platform Using iPSC-Derived Cardiomyocytes Carrying Gene Variants as Models of Cardiac Disease and Drug-Response” (SRI INTERNATIONAL, priority 2021, published 2024).

Settings: source CredibleMeds

SMILES | Risk (Torsade de Pointes)
Cl.Cl.OCCN1CCN(CCC=C2c3ccccc3Sc3ccc(C(F)(F)F)cc32)CC1 (mixture of isomers) [Flupentixol] | (PR)
C[C@]12CC[C@H](O)CC1=CC[C@@H]1[C@@H]2CC[C@]2(C)C(c3cccnc3)=CC[C@@H]12 [Abiraterone] | (CR)
COc1cc2nc(N(C)CCCNC(=O)C3CCCO3)nc(N)c2cc1OC (centres unmarked) [Alfuzosin] | (PR)
CCCCc1oc2ccccc2c1C(=O)c1cc(I)c(OCCN(CC)CC)c(I)c1 [Amiodarone] | (KR)
CCN1CCCC1CNC(=O)c1cc(S(=O)(=O)CC)c(N)cc1OC (centres unmarked) [Amisulpride] | (CR)
CN(C)CCC=C1c2ccccc2CCc2ccccc21 [Amitriptyline] | (CR)
CC(N)Cc1ccccc1 (centres unmarked) [Amphetamine] | (SR)
O=C1CN2Cc3c(ccc(Cl)c3Cl)N=C2N1 [Anagrelide] | (KR)
CNC(=O)c1ccc(N2C(=S)N(c3cnc(C#N)c(C(F)(F)F)c3)C(=O)C23CCC3)cc1F [Apalutamide] | (PR)
CN1CCc2cccc3c2[C@H]1Cc1ccc(O)c(O)c1-3 [Apomorphine] | (PR)
O=C1CCc2ccc(OCCCCN3CCN(c4cccc(Cl)c4Cl)CC3)cc2N1 [Aripiprazole] | (PR)
[As] [Arsenic] | (KR)
CN1CC2c3ccccc3Oc3ccc(Cl)cc3C2C1 (centres unmarked) [Asenapine] | (PR)
COc1ccc(CCN2CCC(Nc3nc4ccccc4n3Cc3ccc(F)cc3)CC2)cc1 [Astemizole] | (KR)
COC(=O)N[C@H](C(=O)N[C@@H](Cc1ccccc1)[C@@H](O)CN(Cc1ccc(-c2ccccn2)cc1)NC(=O)[C@@H](NC(=O)OC)C(C)(C)C)C(C)(C)C [Atazanavir] | (CR)
CNCC[C@@H](Oc1ccccc1C)c1ccccc1 [Atomoxetine] | (PR)
CC[C@H]1OC(=O)[C@H](C)[C@@H](O[C@H]2C[C@@](C)(OC)[C@@H](O)[C@H](C)O2)[C@H](C)[C@@H](O[C@@H]2O[C@H](C)C[C@H](N(C)C)[C@H]2O)[C@](C)(O)C[C@@H](C)CN(C)[C@H](C)[C@@H](O)[C@]1(C)O [Azithromycin] | (KR)
Cn1c(CCCC(=O)O)nc2cc(N(CCCl)CCCl)ccc21 [Bendamustine] | (PR)
NS(=O)(=O)c1cc2c(cc1C(F)(F)F)NC(Cc1ccccc1)NS2(=O)=O (centres unmarked) [Bendroflumethiazide] | (CR)
C[C@@H](Cc1ccccc1)N(C)Cc1ccccc1 [Benzphetamine] | (SR)
CC(C)COCC(CN(Cc1ccccc1)c1ccccc1)N1CCCC1 (centres unmarked) [Bepridil] | (KR)
COc1ccc(NC(=O)c2ccc(C(=N)N(C)C)cc2)c(C(=O)Nc2ccc(Cl)cn2)c1 [Betrixaban] | (PR)
CC(O)(CS(=O)(=O)c1ccc(F)cc1)C(=O)Nc1ccc(C#N)c(C(F)(F)F)c1 (centres unmarked) [Bicalutamide] | (PR)
CC(C)C[C@H](NC(=O)[C@H](Cc1ccccc1)NC(=O)c1cnccn1)B(O)O [Bortezomib] | (PR)
COc1cc(Nc2c(C#N)cnc3cc(OCCCN4CCN(C)CC4)c(OC)cc23)c(Cl)cc1Cl [Bosutinib] | (PR)
COc1cc2nccc(Oc3ccc(NC(=O)C4(C(=O)Nc5ccc(F)cc5)CC4)cc3)c2cc1OC [Cabozantinib] | (PR)

SMILES | Risk (Torsade de Pointes)
CCCCCOC(=O)Nc1nc(=O)n([C@@H]2O[C@H](C)[C@@H](O)[C@H]2O)cc1F [Capecitabine] | (PR)
Cc1cc(Nc2ncc(Cl)c(Nc3ccccc3S(=O)(=O)C(C)C)n2)c(OC(C)C)cc1C1CCNCC1 [Ceritinib] | (PR)
[Cs] [Cesium] | (KR)
CCN(CC)CCCC(C)Nc1ccnc2cc(Cl)ccc12 (centres unmarked) [Chloroquine] | (KR)
CN(C)CCCN1c2ccccc2Sc2ccc(Cl)cc21 [Chlorpromazine] | (KR)
CN(C)CC/C=C1/c2ccccc2Sc2ccc(Cl)cc21 [Chlorprothixene] | (KR)
O=C1CCc2cc(OCCCCc3nnnn3C3CCCCC3)ccc2N1 [Cilostazol] | (KR)
CN/C(=N/CCSCc1nc[nH]c1C)NC#N [Cimetidine] | (CR)
O=C(O)c1cn(C2CC2)c2cc(N3CCNCC3)c(F)cc2c1=O [Ciprofloxacin] | (KR)
COc1cc(N)c(Cl)cc1C(=O)NC1CCN(CCCOc2ccc(F)cc2)CC1OC (centres unmarked) [Cisapride] | (KR)
CN(C)CCCC1(c2ccc(F)cc2)OCc2cc(C#N)ccc21 (centres unmarked) [Citalopram] | (KR)
CC[C@H]1OC(=O)[C@H](C)[C@@H](O[C@H]2C[C@@](C)(OC)[C@@H](O)[C@H](C)O2)[C@H](C)[C@@H](O[C@@H]2O[C@H](C)C[C@H](N(C)C)[C@H]2O)[C@](C)(OC)C[C@@H](C)C(=O)[C@H](C)[C@@H](O)[C@]1(C)O [Clarithromycin] | (KR)
CC(C)/N=c1\cc2n(-c3ccc(Cl)cc3)c3ccccc3nc-2cc1Nc1ccc(Cl)cc1 [Clofazimine] | (PR)
CN1CCN(C2=Nc3ccccc3Sc3ccc(Cl)cc32)CC1 [Clotiapine] | (PR)
O=C(c1ccc(F)c(F)c1Nc1ccc(I)cc1F)N1CC(O)([C@@H]2CCCCN2)C1 [Cobimetinib] | (PR)
COC(=O)[C@H]1[C@@H](OC(=O)c2ccccc2)C[C@@H]2CC[C@H]1N2C [Cocaine] | (KR)
C[C@@H](Oc1cc(-c2cnn(C3CCNCC3)c2)cnc1N)c1c(Cl)ccc(F)c1Cl [Crizotinib] | (PR)
CC(CN(C)C)CN1c2ccccc2Sc2ccc(C#N)cc21 (centres unmarked) [Cyamemazine] | (PR)
CC(C)(C)c1nc(-c2cccc(NS(=O)(=O)c3c(F)cccc3F)c2F)c(-c2ccnc(N)n2)s1 [Dabrafenib] | (PR)
Cc1nc(Nc2ncc(C(=O)Nc3c(C)cccc3Cl)s2)cc(N2CCN(CCO)CC2)n1 [Dasatinib] | (PR)
C[C@]1(COc2ccc(N3CCC(Oc4ccc(OC(F)(F)F)cc4)CC3)cc2)Cn2cc([N+](=O)[O-])nc2O1 [Delamanid] | (PR)
CNCCCN1c2ccccc2CCc2ccccc21 [Desipramine] | (PR)
[2H]C([2H])([2H])Oc1cc2c(cc1OC([2H])([2H])[2H])C1CC(=O)C(CC(C)C)CN1CC2 (centres unmarked) [Deutetrabenazine] | (PR)
Cc1cccc([C@H](C)c2cnc[nH]2)c1C [Dexmedetomidine] | (PR)
C[C@H](N)Cc1ccccc1 [Dextroamphetamine] | (SR)
CC(C)N(CCC(C(N)=O)(c1ccccc1)c1ccccn1)C(C)C (centres unmarked) [Disopyramide] | (KR)

SMILES | Risk (Torsade de Pointes)
CC(CCc1ccc(O)cc1)NCCc1ccc(O)c(O)c1 (centres unmarked) [Dobutamine] | (SR)
CN(CCOc1ccc(NS(C)(=O)=O)cc1)CCc1ccc(NS(C)(=O)=O)cc1 [Dofetilide] | (KR)
NCCc1ccc(O)c(O)c1 [Dopamine] | (SR)
CN(C)CCC=C1c2ccccc2COc2ccccc21 [Doxepin] | (CR)
CCCCc1oc2ccc(NS(C)(=O)=O)cc2c1C(=O)c1ccc(OCCCN(CCCC)CCCC)cc1 [Dronedarone] | (KR)
O=C(CCCN1CC=C(n2c(=O)[nH]c3ccccc32)CC1)c1ccc(F)cc1 [Droperidol] | (KR)
N[C@H](C(=O)O)[C@H](O)c1ccc(O)c(O)c1 [Droxidopa] | (SR)
O=C1Nc2ccc(Cl)cc2[C@@](C#CC2CC2)(C(F)(F)F)O1 [Efavirenz] | (PR)
CCCCCCCC(=O)N[C@H](CN1CCCC1)[C@H](O)c1ccc2c(c1)OCCO2 [Eliglustat] | (PR)
COC(=O)N[C@@H](C)CNc1nccc(-c2cn(C(C)C)nc2-c2cc(Cl)cc(NS(C)(=O)=O)c2F)n1 [Encorafenib] | (PR)
CCc1ccc(C(=O)C(C)CN2CCCCC2)cc1 (centres unmarked) [Eperisone] | (CR)
CNC[C@H](O)c1ccc(O)c(O)c1 [Epinephrine] | (SR)
COc1cccc2c1C(=O)c1c(O)c3c(c(O)c1C2=O)C[C@@](O)(C(=O)CO)C[C@@H]3O[C@H]1C[C@H](N)[C@@H](O)[C@H](C)O1 [Epirubicin] | (PR)
C=C1C[C@@H]2CC[C@@]34C[C@H]5O[C@H]6[C@@H](O3)[C@H]3O[C@H](CC[C@@H]3O[C@H]6[C@H]5O4)CC(=O)C[C@@H]3[C@@H](OC)[C@@H](C[C@H](O)CN)O[C@H]3C[C@H]3O[C@@H](CC[C@@H]1O2)C[C@@H](C)C3=C [Eribulin] | (PR)
CN(C)CCC[C@@]1(c2ccc(F)cc2)OCc2cc(C#N)ccc21 [Escitalopram] | (KR)
COc1ccc2nc([S@@+]([O-])Cc3ncc(C)c(OC)c3C)[nH]c2c1 [Esomeprazole] | (CR)
NC(N)=Nc1nc(CSCCC(N)=NS(N)(=O)=O)cs1 [Famotidine] | (CR)
NC(=O)OCC(COC(N)=O)c1ccccc1 [Felbamate] | (PR)
CCNC(C)Cc1cccc(C(F)(F)F)c1 (centres unmarked) [Fenfluramine] | (SR)
CCCCCCCCc1ccc(CCC(N)(CO)CO)cc1 [Fingolimod] | (PR)
O=c1[nH]cc(F)c(=O)[nH]1 [Fluorouracil] | (PR)
CNCCC(Oc1ccc(C(F)(F)F)cc1)c1ccccc1 (centres unmarked) [Fluoxetine] | (CR)
C[C@@H]1C[C@H]2[C@@H]3C[C@H](F)C4=CC(=O)C=C[C@]4(C)[C@@]3(F)[C@@H](O)C[C@]2(C)[C@@]1(O)C(=O)SCF [Fluticasone] | (SR)
NS(=O)(=O)c1cc(C(=O)O)c(NCc2ccco2)cc1Cl [Furosemide] | (CR)
C[C@H]1NCc2cc(-c3ccc4c(=O)c(C(=O)O)cn(C5CC5)c4c3OC(F)F)ccc21 [Garenoxacin] | (CR)
